Source: patent US20210038668A1, “TRADITIONAL CHINESE MEDICINE COMPOSITION FOR PREVENTING AND/OR TREATING ISCHEMIC REPERFUSION INJURY” (TASLY PHARMACEUTICAL GROUP CO., LTD., priority 2018, published 2021)

Assays:
Type in all cases: in vivo, C57BL/6 mice
[1] = test system: thrombus of arteria carotis communis; assay: Observation of carotid thrombus size, FeCl3 model
Procedure: Mice were anesthetized via intraperitoneal injection by pentobarbital sodium (2%, 45 mg/kg), and neck kin was sterilized. A median incision was cut on the neck, exposed and isolated to obtain arteria carotis communis; a waterproof cushion was used to isolate arteria carotis communis with the length of about 2.5-3 mm from surrounding tissues. The isolated arteria carotis communis was wrapped by a filter paper soaked by 10% FeCl3 for about 1 mm (width), and the filter paper was removed 3 minutes later, the outside of blood vessel was washed by 0.9% normal saline. The waterproof cushion was removed. The neck incision was sutured. The start of Fe3+ stimulation was defined as the beginning of ischemia, and those mice meeting the following conditions were selected into the group: the blood vessel was blocked at the maximum diameter of the neck thrombus 10 minutes after ischemia; the blood flow of the carotid artery distal end was less than 20% of the base value 15 minutes after ischemia; and the thrombus was stable 4.5 hours after ischemia (before reperfusion); the carotid artery vessel at 60% and more of the diameter was blocked by the maximum diameter of the thrombus.
Mice were treated by medicaments or normal saline according to random grouping results 4.5 hours after ischemia. Mice femoral vein was intubated, and left femoral vein was injected tPA (tissue plasminogen activator) or normal saline; right femoral vein was injected the traditional Chinese medicinal composition of the present invention or normal saline; 10% of the total dose was injected via an injection pump, and the rest 90% were continuously injected intravenously for 1 hour with the rate of 0.1 ml/h. Three proportion groups were selected to the traditional Chinese medicinal composition of the present invention respectively below:
Carotid thrombus of mice was dynamically observed by an upright microscope. Anesthetized mice were placed on a board in supine position, a median incision was cut on the neck; arteria carotis communis was exposed and separated; femoral vein was given Acridine red fluorescence labeling of blood platelet to observe the change of carotid thrombus of mice before ischemia (namely, a base value), 10 minutes after ischemia, 4.5 hours after ischemia (namely, before reperfusion), 1 hour after reperfusion, 2 hours after reperfusion and 24 hours after reperfusion. There was no thrombus before ischemia (namely, a base value); the blood vessel was blocked by thrombus at a maximum diameter 10 minutes after ischemia; blood flow at the distal end of carotid artery decreased to 20% of the base value below 15 minutes after ischemia; the thrombus was stable 4.5 hours after ischemia (namely, before reperfusion). The success criterion is that the size of thrombus blocks 60% of the vascular area of carotid artery and above; the success rate of entry is up to 90.9%. Excepting for the sham-operated group and each basal group, the rest groups were randomly allocated after building models successfully.

[2] = test system: brain surface postcapillary venule; assay: Plasma albumin leakage of brain surface postcapillary venule; details: 24 h after administration; tPA 10 mg/kg alone; T541 20 mg/kg + tPA 10 mg/kg
Procedure: Plasma albumin leakage: femoral venous cannula of mice was conducted under a stereoscopic microscope (PE/08, outer diameter: 0.36 mm and inner diameter: 0.20 mm). Mice were fixed on an observation board for brain microcirculation in prone position; parietal skin of mice was cut off to expose right parietal bone; the whole parietal bone was thinned by grinding by a hand-held cranial drill till there is only one layer of soft bone cortex under the stereoscopic microscope. FITC-labelled plasma albumin (excitation wavelength: 420-490 nm, emission wavelength: 520 nm) was slowly injected via femoral vein. 10 minutes later, fluorescence images of postcapillary venule, artery in the dominant region of middle cerebral artery and artery in the dominant region of anterior cerebral artery among […] (diameter) on the surface of the mice brain after reperfused for 24 hours by an upright fluorescent microscope linked to hypersensitive fluorescent CCD; then leakage of plasma albumin was analyzed. Fluorescence intensity inside (Iv) and outside (Ii) venule was calculated by an image analysis software ImageJ (Bethesda, Md., USA); the leakage of plasma albumin is denoted by Ii/Iv.

[3] = test system: TUNEL positive cells of cerebral cortex in penumbra; assay: TUNEL staining of brain tissue; details: brain tissue 24 hours after administration; tPA 10 mg/kg alone; T541 20 mg/kg + tPA 10 mg/kg
Procedure: After reperfused for 24 hours, mice were killed to take brain, so as to observe the degree of cerebral hemorrhage and infarct size, measure the hemoglobin content in brain tissues after bleeding, detect dry/wet weight ratio and Evans Blue leakage of brain tissues, reflect the condition of tissue edema, observe the severity order of apoptosis by TUNEL staining brain tissues, observe the change of blood brain barrier of the blood vessel when injured by making Western blotting analysis on connexins Occludin, JAM-1, ZO-1, VE-cadherin and laminin, namely, the component of basement membrane and by conducting immunofluorescent staining on partial connexins and laminin, detect the change of the structure after cerebral ischemia reperfusion by a scanning electron microscope and IEM, and measure the change on the activity of brain tissues MDA, 8-OHdG, ATP/ADP/AMP and mitochondrial complexes I, II and IV by enzyme-linked immunosorbent assay (ELISA).

[4] = test system: cerebral cortex vessels and neurons in penumbra; assay: Transmission electron microscopy of cerebral cortex; details: 24 h after administration
Procedure: Transmission electron microscope (IEM): after reperfused for 24 hours, anesthetized mice were perfused 3% glutaraldehyde for 40 minutes via ventriculus sinister at a rate of 3 ml/min; the brain was taken, and the mice right cortex was cut into small pieces (1 mm×1 mm×1 mm); small pieces were immobilized in 3% glutaraldehyde for 30 minutes at room temperature or stored over night at 4° C. The brain pieces were washed on a table containing sucrose for 3 times for 15 minutes, immobilized by osmic acid for 2 hours at room temperature, washed by 0.2; PBS for 3 times for 15 minutes, dehydrated for 15 minutes respectively by 30%, 50%, 70% and 90% acetone, and dehydrated for 15 minutes for 15 minutes by 100% acetone, then preimpregnated into a pre-embedding agent mixed by 100% acetone and embedding agent according to a ratio of 1:1; and kept over the night at 37° C.; then brain pieces were impregnated by a pure embedding agent for 24 hours at 37° C., and cured for 48 hours, then naturally cooled; afterwards, brain pieces were trimmed and cut into slices with the thickness of 60 nm. The slices were stained by uranyl acetate and lead citrate, and observed and shoot by a IEM (JEM 1230, JEOL, Tokyo, Japan).

[5] = before administration, groups: tPA 10 mg/kg alone, T541 20 mg/kg, T141 12 mg/kg, T582 15 mg/kg each + tPA 10 mg/kg
[6] = iv, tPA 10 mg/kg alone, T541 20 mg/kg, T141 12 mg/kg, T582 15 mg/kg each + tPA 10 mg/kg
[7] = tPA alone, T541 combined with tPA

Substance: tPA: tissue-type plasminogen activator (tPA) for thrombolysis
- Size of thrombus, 10 minutes after FeCl3 simulation [1, 5]: 25.13 ± 1.34
- Size of thrombus, Before FeCl3 simulation [1, 5]: 0 ± 0
- thrombolysis effect (in words) ([1]; given alone: T541 20 mg/kg, tPA 10 mg/kg (24 hours later)): size of thrombus decreases obviously
- Size of thrombus, 5.5 hours after FeCl3 simulation (1 hour after administration) [1, 6]: 22.14 ± 1.36
- Size of thrombus, 6.5 hours after FeCl3 simulation (2 hours after administration) [1, 6]: 16.64 ± 4.10
- Size of thrombus, 28.5 hours after FeCl3 simulation (24 hours after administration) [1, 6]: 11.15 ± 2.61
- Size of thrombus, 4.5 hours after FeCl3 simulation ([1]; start of administration, groups: tPA 10 mg/kg alone, T541 20 mg/kg, T141 12 mg/kg, T582 15 mg/kg each + tPA 10 mg/kg): 23.47 ± 1.78
- Albumin exudation ratio of venule % [2]: 125.10 ± 3.53 %
- TUNEL positive cell counting [3]: 27.14 ± 1.77
- TEM: vascular endothelium and perivascular edema (in words) ([4]; tPA 10 mg/kg alone, T541 20 mg/kg + tPA): vascular endothelium is rough, and has obvious edema gap with surrounding tissues
- TEM: endothelial cell adhesion structure of cerebral cortex vessels (in words) [4, 7]: the close adhesion structure of cerebral cortex vessels in penumbra field is opened
- TEM: neurons of cerebral cortex in penumbra (in words) [4, 7]: bodies of neuron shrink and deform
